Assay results from publication PMC10216478, “Development of a Non-Peptide Angiotensin II Type 1 Receptor Ligand by Structural Modification of Olmesartan as a Biased Agonist” (Biomedicines, 2023).

Assays:
AT1 L112A receptor [1] = molecular target: T1, AT1 L112A receptor (Rattus norvegicus, UniProt P25095, L112A); experiment: Immunoblotting of ERK 1/2 activation in COS7 cells overexpressing AT1-L112A receptor; format: cell-based; conditions: 1 µM ligands or 0.1 µM Ang II, 10 min, n = 5, vs. (-)
T1 construct: expressed in transfected cells; host or cells: COS7
T1 sequence (P25095 1-359 L112A): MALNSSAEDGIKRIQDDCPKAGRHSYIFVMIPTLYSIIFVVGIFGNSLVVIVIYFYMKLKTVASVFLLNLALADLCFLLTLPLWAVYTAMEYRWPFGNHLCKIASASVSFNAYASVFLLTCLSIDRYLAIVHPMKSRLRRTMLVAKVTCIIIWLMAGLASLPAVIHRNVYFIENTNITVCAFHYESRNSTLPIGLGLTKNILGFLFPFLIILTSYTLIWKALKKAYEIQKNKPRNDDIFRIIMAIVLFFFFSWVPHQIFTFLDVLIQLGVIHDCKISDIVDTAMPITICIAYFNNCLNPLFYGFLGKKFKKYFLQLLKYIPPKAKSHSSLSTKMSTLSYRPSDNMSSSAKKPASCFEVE
Experimental: (§1) The synthetic rat AT1 receptor gene, which was cloned in the shuttle expression vector pMT-2, was used for expression and mutagenesis, as described previously. […] In the experiments, cells were grown without a cell-growth supplement. To express the AT1 receptor protein, 10 µg of purified plasmid DNA per 10^7 cells was used in the transfection. Wild-type and mutated AT1 receptors were transiently transfected into cells using Lipofectamine 2000 liposomal reagent (Roche Applied Science, Penzberg, Germany). Cells were plated and grown and were 70–90% confluent at the time of transfection. We incubated plasmid DNA (10 µg)–lipid (10 µL) complexes for 5 min at room temperature and added and incubated the complexes with cells for 24 h. We then analyzed the parameters in transfected cells. […] Transfected cells that had been cultured for 48–72 h were harvested. Cell membranes were prepared using the nitrogen Parr bomb disruption or freeze–thaw methods.
In in vitro studies, ERK 1/2 activation by 1 µM ligands or 0.1 µM Ang II incubated for 10 min was measured using COS7 cells that overexpressed AT1 wild-type and mutant receptors. ERK activity was measured in cells maintained for 18 h in DMEM containing 0.1% serum. At the end of the stimulation, the culture medium was removed by aspiration, the cells were washed with ice-cold phosphate-buffered saline, and the dishes were frozen in liquid nitrogen. The cells were scraped using a scraper after melting, and the scraped cells were transferred to a tube. We homogenized the cells in lysis buffer plus protease inhibitors and determined the protein concentration using the bicinchoninic acid method. […] We fractionated total proteins using sodium dodecyl sulfate polyacrylamide gel electrophoresis; we then transferred the proteins to a Hybond nitrocellulose membrane and blocked the blotted membranes with 10% bovine serum albumin in tris-buffered saline buffer (50 mM Tris–HCl pH 7.6, 150 mM NaCl) for 1 h at room temperature. […] An enhanced chemiluminescent substrate system (Amersham, Buckinghamshire, UK) was used. The signal was independently quantified by digital image analysis (ImageJ, National Institutes of Health, Bethesda, MD, USA).

AT1 L112A receptor [2] = molecular target: T1, AT1 L112A receptor; experiment: IP production assay in COS7 cells expressing AT1-L112A receptor; format: cell-based; conditions: 1 µM ligands or 0.1 µM Ang II, 30 min, n = 5, vs. (-)
Experimental: as §1
Ligand (such as agonist or antagonist)-induced IP production through the AT1 receptor in transfected COS7 cells transiently expressing the AT1 receptor was measured to evaluate cell signaling as a second messenger for controlling blood pressure, since the increases in the intracellular Ca^2+ concentration were the result of IP accumulation, which indicated vasoconstriction. As a surrogate model with higher levels of AT1 receptor expression, COS7 cells are suitable for IP measurement because it is easy to detect differences in IP production. Cells were labeled for 24 h with [^3H]-myoinositol at 37 °C in DMEM containing 10% FBS. Next, the cells were washed with buffer 3 times and incubated with a medium containing 10 mM LiCl for 20 min; 0.1 µM Ang II or 1 µM ligands were added and incubation was continued for another 30 min at 37 °C. After incubation, the medium was removed, and total soluble IP was extracted from the cells using the perchloric acid extraction method, as described previously. Cells were plated at a field density of 5 × 10^3 cells/cm^2 in 60 mm dishes and cultured in a fresh growth medium at 37 °C in a DMEM 5% CO2 incubator. […] The culture medium was changed 48 h after transfection and 1.5 mL of 1 μCi/mL of [^3H]-myoinositol was added to each 60-mm dish at 37 °C in DMEM containing 10% FBS. After labeling, the cells were washed with buffer 3 times and incubated with a medium containing 10 mM LiCl for 20 min. The indicated concentration of ligands was added and incubation was continued for an additional 30 min at 37 °C. After incubation, the medium was removed, and total soluble IP was extracted from the cells using the perchloric acid extraction method. Total IP production was expressed as the sum of radioactivity, as described previously.

ERK1/2 activation (AT1 L112A receptor [1])	SMILES	Effect on IP production (AT1 L112A receptor [2])
did not change ERK1/2 activation	CCCc1nc(C(C)(C)O)c(C(=O)O)n1Cc1ccc(-c2ccccc2-c2nnn[nH]2)cc1 [Olmesartan, olmesartan]	significant reduction in basal IP production levels
but not R239470, activated ERK1/2	CCCc1nc(C(C)(C)O)c(C(N)=O)n1Cc1ccc(-c2ccccc2-c2nnn[nH]2)cc1 [R239470]	none of the compounds (R239470, R781253, and R794847) affected IP production
activated ERK1/2	CCCc1nc(C(C)(C)O)c(C(=O)O)n1Cc1ccc(-c2cc(Cc3ccc(O)cc3)ccc2-c2nnn[nH]2)cc1 [R781253]	none of the compounds (R239470, R781253, and R794847) affected IP production
activated ERK1/2	CCCc1nc(C(C)(C)O)c(C(N)=O)n1Cc1ccc(-c2cc(Cc3ccc(O)cc3)ccc2-c2nnn[nH]2)cc1 [R794847]	none of the compounds (R239470, R781253, and R794847) affected IP production
